Values of other authors as cited in patent publication US7303775B1, “Carbohydrate ruminant feed energy supplement and method” (Penn State Research Foundation, priority 2003, dated 2007).

How the values were obtained:
insulin = conditions: compared with sucrose or glucose
rat liver = conditions: compared with glucose
glucagon = conditions: oral, same dose, humans

Structure (SMILES) | potency as insulin secretagogue (insulin) | rate of conversion to fat by rat liver (rat liver) | effect on glucagon (glucagon)
O=C(CO)[C@@H](O)[C@H](O)[C@H](O)CO [fructose] | less potent | much higher rate | did not
OC[C@H]1O[C@@](CO)(O[C@H]2O[C@H](CO)[C@@H](O)[C@H](O)[C@H]2O)[C@@H](O)[C@@H]1O [sucrose, reference compound] |  |  | decline
